Assay results published in patent US8987281B2, “Methods of treating cancer” (Endocyte, Inc., priority 2010, dated 2015).

Test system: KB tumors
Experiment: In vivo antitumor experiments, s.c. KB tumors in nu/nu mice
Details: i.v., EC145 1 μmol/kg/injection TIW 2 weeks
Method: Four to six week-old female nu/nu mice (Charles River, Wilmington, Mass.) or six to seven week-old female Balb/c mice (Harlan Sprague Dawley, Inc., Indianapolis, Ind.) were maintained on a standard 12 h light-dark cycle and fed ad libitum with folate-deficient chow (Harlan diet #TD00434, Harlan Teklad, Madison, Wis.) for the duration of the experiment. FR-positive human nasopharyngeal KB cells and human ovarian IGROV cells were grown continuously as a monolayer, using folate-free RPMI medium (FFRPMI) containing 10% heat-inactivated fetal calf serum (HIFCS) at 37° C. in a 5% CO2/95% air-humidified atmosphere with no antibiotics. Syngeneic FR-positive Madison 109 (M109) lung carcinoma cells were generated from M109 tumors and cultured for a few days in FFRPMI containing 10% HIFCS for a few days before implantation in mice. KB cells (1×10^6 per nu/nu mouse), M109 cells (1×10^6 per Balb/c mouse), IGROV cells (4×10^6 per nu/nu mouse) in 100 μL were injected in the subcutis of the dorsal medial area. Mice were divided into groups of five, and test articles were freshly prepared and injected through the lateral tail vein under sterile conditions in a volume of 200 μL of phosphate-buffered saline (PBS). […] The mice in the control groups received no treatment. Growth of each s.c. tumor was followed by measuring the tumor three times per week during treatment and twice per week thereafter until a volume of 1500 mm^3 was reached. Tumors were measured in two perpendicular directions using Vernier calipers, and their volumes were calculated as 0.5×L×W^2, where L=measurement of longest axis in mm and W=measurement of axis perpendicular to L in mm. As a general measure of toxicity, changes in body weights were determined on the same schedule as tumor volume measurements. Survival of animals was monitored daily. Animals that were moribund (or unable to reach food or water) were euthanized by CO2 asphyxiation. All in vivo studies were performed in accordance with the American Accreditation Association of Laboratory Animal Care guidelines.
For individual tumors, a partial response (PR) was defined as volume regression>50% but with measurable tumor (>2 mm^3) remaining at all times. Complete response (CR) was defined as a disappearance of measurable tumor mass (<2 mm^3) at some point until the end of the study. Cures were defined as CR's without tumor re-growth within the study time frame.
See FIG. 1 for tumor response and FIG. 2 for weight change during the treatment period.
See FIG. 3 for tumor response and FIG. 4 for weight change during the treatment period.
See FIG. 5 for tumor response and FIG. 6 for weight change during the treatment period.

[1] = KB tumors 144-212 mm^3, five animals per group, Docetaxel 10 mg/kg TIW 1 week (FIG. 1)
[2] = KB tumors 111-173 mm^3, five animals per group, Paclitaxel 20 mg/kg TIW in Cremophor/ethanol 1 week (FIG. 5)

Structure (SMILES) | Cures [1] | complete responses [1] | partial responses [1] | Cures [2] | complete responses [2]
CC(=O)O[C@@]12CO[C@@H]1C[C@H](O)[C@@]1(C)C(=O)[C@H](O)C3=C(C)[C@@H](OC(=O)[C@H](O)[C@@H](NC(=O)OC(C)(C)C)c4ccccc4)C[C@@](O)([C@@H](OC(=O)c4ccccc4)[C@H]21)C3(C)C [Docetaxel, docetaxel] | no | no | no |  | 
CC(=O)O[C@H]1C(=O)[C@@]2(C)[C@H]([C@H](OC(=O)c3ccccc3)[C@]3(O)C[C@H](OC(=O)[C@H](O)[C@@H](NC(=O)c4ccccc4)c4ccccc4)C(C)=C1C3(C)C)[C@]1(OC(C)=O)CO[C@@H]1C[C@@H]2O [Paclitaxel, paclitaxel] |  |  |  | 3 | 2
